Data on three compounds can be found in PMC9820167, “Design and Synthesis of Conformationally Flexible Scaffold as Bitopic Ligands for Potent D3-Selective Antagonists” (International Journal of Molecular Sciences, 2022).

Experiment [1] has as its target Adrenergic beta2 (Homo sapiens, UniProt P07550). The experiment in a line: PDSP binding screen.
Experiment [2] has as its target Opioid KOR (Homo sapiens, UniProt P41145). Briefly: PDSP binding screen. The following applies: for inhibition at 10 µM: read-out: Ki (nM) or % inhibition at 10 µM: KOR.
For experiment [3], the target named is Histamine H3 (Homo sapiens, UniProt Q9Y5N1). The experiment in a line: PDSP binding screen. The following applies: for inhibition at 10 µM: read-out: Ki (nM) or % inhibition at 10 µM: H3.
Sequence of Histamine H3 (Q9Y5N1 whole entry): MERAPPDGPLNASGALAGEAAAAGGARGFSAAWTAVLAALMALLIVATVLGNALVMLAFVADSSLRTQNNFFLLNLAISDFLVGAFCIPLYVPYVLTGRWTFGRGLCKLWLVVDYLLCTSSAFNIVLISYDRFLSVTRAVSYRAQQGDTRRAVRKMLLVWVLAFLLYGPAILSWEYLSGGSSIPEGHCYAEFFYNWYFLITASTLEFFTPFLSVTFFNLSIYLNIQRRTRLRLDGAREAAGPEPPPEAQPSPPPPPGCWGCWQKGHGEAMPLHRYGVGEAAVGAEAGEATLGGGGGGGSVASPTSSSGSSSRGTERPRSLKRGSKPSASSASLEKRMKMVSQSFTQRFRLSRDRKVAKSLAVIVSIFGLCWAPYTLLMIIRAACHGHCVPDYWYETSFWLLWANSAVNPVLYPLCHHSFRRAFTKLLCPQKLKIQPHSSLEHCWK
In experiment [4] the target is Serotonin 5-HT2B (Homo sapiens, UniProt P41595). Briefly: PDSP binding screen.
Sequence of Serotonin 5-HT2B (P41595 whole entry): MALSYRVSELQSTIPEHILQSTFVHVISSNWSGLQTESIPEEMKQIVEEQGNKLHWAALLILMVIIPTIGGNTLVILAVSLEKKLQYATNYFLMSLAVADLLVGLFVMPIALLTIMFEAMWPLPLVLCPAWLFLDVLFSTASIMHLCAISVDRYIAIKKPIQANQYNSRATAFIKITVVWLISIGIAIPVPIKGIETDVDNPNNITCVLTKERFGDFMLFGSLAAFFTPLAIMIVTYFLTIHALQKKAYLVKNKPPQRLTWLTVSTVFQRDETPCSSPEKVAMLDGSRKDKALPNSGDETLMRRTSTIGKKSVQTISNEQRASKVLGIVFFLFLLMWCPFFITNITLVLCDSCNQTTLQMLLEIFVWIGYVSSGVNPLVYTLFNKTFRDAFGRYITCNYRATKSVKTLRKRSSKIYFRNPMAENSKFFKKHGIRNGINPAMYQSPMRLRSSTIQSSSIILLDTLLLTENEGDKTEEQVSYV
For experiment [5], the target named is Dopamine D5 (Homo sapiens, UniProt P21918). The experiment in a line: PDSP binding screen. To be noted: for inhibition at 10 µM: read-out: Ki (nM) or % inhibition at 10 µM: D5.
Sequence of Dopamine D5 (P21918 whole entry): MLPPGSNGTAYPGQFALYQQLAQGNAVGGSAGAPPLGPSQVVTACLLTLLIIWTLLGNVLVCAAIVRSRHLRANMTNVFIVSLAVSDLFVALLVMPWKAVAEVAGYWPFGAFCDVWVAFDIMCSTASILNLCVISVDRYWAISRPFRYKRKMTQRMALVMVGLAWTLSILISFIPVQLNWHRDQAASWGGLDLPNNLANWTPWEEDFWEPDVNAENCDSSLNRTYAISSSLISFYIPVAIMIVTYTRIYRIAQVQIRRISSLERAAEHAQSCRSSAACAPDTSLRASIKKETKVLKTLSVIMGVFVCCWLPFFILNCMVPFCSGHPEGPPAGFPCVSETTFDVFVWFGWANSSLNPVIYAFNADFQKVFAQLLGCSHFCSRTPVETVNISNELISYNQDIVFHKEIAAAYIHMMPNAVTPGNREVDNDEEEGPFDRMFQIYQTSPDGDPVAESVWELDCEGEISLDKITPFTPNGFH
Experiment [6] addresses Muscarinic M3 (Homo sapiens, UniProt P20309). The experiment in a line: PDSP binding screen. The following applies: read-out: Ki (nM) or % inhibition at 10 µM: M3.
The target of experiment [7] is T1, human D2 receptors (Homo sapiens, UniProt P14416).
T1 construct: expressed in transfected cells; host or cells: HEK293
T1 sequence (P14416 whole entry): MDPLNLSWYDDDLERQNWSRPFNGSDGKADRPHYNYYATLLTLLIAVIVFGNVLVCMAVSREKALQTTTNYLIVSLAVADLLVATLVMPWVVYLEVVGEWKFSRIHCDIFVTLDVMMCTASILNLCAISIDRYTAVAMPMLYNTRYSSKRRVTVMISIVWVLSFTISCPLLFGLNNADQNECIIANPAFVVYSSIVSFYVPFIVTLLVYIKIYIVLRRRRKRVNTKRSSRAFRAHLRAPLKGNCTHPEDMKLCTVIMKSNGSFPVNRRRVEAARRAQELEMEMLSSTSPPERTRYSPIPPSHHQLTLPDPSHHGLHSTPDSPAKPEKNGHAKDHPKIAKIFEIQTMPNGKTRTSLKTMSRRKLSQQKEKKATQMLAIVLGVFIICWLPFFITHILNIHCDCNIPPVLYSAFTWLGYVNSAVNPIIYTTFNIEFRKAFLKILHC
The experiment in a line: Radioligand binding assay with [125I]IABN, D2 receptor. To be noted: [125I]IABN, D2 receptors expressed in HEK cells; mean ± SEM, three experiments; HCl salts; read-out: Ki ± SEM (nM) D2. Here is the method:
Two different assays were used to evaluate the properties of the analogs described above. The receptor binding affinity was measured by radioligand binding assays using [^125I]IABN with D2 or D3 receptors highly expressed HEK293 cells. The functional activity of the analogs was determined using a β-arrestin recruitment assay. […] The results of the antagonist mode assay are reported as IC50 values.
(§1) Ki values for D2 and D3 receptors were measured using [^125I]IABN in human D2 and D3 receptors expressed in HEK cells, respectively. A filtration binding assay was used to characterize membrane-associated receptor binding properties. The details for the procedures were described in the literature.

Experiment [8] has as its target T2, Muscarinic M2 (Homo sapiens, UniProt P08172).
T2 sequence (P08172 1-466): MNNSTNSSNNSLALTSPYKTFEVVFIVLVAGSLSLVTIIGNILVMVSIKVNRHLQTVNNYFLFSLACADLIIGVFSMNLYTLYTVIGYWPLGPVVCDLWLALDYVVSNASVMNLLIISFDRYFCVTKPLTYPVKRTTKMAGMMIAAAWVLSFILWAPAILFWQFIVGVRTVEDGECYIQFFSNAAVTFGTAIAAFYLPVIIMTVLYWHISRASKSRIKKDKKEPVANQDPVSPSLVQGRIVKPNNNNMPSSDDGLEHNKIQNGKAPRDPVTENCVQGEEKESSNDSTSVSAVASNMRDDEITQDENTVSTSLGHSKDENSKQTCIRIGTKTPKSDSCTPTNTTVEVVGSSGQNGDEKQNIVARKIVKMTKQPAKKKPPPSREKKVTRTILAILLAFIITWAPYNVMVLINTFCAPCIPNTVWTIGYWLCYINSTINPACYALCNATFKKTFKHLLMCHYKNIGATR
The experiment in a line: PDSP binding screen. To be noted: for inhibition at 10 µM: read-out: Ki (nM) or % inhibition at 10 µM: M2.

The target of experiment [9] is Norepinephrine transporter (NET) (Homo sapiens, UniProt P23975). Briefly: PDSP binding screen.
Sequence of Norepinephrine transporter (NET) (P23975 whole entry): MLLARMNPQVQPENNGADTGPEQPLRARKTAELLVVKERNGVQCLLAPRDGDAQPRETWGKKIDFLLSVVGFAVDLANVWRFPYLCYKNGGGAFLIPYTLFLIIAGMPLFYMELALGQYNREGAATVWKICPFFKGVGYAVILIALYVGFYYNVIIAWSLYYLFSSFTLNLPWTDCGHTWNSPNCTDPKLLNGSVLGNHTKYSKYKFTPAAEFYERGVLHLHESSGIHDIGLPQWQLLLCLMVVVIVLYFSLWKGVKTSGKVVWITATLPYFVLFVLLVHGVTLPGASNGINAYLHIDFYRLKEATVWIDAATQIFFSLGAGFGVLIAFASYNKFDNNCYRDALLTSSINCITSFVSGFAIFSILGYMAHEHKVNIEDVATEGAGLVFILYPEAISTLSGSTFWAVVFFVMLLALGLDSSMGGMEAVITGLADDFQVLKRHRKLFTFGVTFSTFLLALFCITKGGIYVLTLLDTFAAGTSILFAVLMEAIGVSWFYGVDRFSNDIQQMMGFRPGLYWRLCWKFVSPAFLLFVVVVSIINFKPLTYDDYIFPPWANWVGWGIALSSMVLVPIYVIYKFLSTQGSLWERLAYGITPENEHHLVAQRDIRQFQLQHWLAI
Experiment [10] has as its target T3, Adrenergic alpha2A (Homo sapiens, UniProt P08913).
T3 sequence (P08913 1-465): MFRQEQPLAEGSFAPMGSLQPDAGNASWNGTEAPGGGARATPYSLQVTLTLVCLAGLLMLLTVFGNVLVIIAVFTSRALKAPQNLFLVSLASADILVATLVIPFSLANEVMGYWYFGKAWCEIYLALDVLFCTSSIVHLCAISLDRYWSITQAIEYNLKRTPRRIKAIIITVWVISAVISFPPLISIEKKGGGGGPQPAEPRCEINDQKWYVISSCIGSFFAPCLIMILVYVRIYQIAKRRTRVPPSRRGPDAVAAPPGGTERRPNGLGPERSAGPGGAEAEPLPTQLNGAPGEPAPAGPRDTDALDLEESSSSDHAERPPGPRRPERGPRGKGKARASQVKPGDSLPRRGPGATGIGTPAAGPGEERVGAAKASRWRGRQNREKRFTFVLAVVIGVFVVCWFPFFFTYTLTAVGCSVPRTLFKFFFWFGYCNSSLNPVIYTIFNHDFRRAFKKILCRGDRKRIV
The experiment in a line: PDSP binding screen.

Experiment [11] concerns the target human D3 receptors (Homo sapiens, UniProt P35462). The experiment in a line: Radioligand binding assay with [125I]IABN, D3 receptor. The arrangement: expressed in transfected cells; host or cells: HEK293. The following applies: for Ki: [125I]IABN, D3 receptors expressed in HEK cells, mean ± SEM, three experiments, HCl salts, read-out: Ki ± SEM (nM) D3; for D2/D3: selectivity ratio of Ki D2 / Ki D3 (fold). As to the method: Two different assays were used to evaluate the properties of the analogs described above. The receptor binding affinity was measured by radioligand binding assays using [^125I]IABN with D2 or D3 receptors highly expressed HEK293 cells. The functional activity of the analogs was determined using a β-arrestin recruitment assay. The assay was initially conducted in agonist binding mode to confirm that they function as antagonists at the D3 receptor. Once this efficacy was confirmed, the assay was conducted in antagonist mode to determine the ability of the antagonist to compete with dopamine at the D3 receptor. The results of the antagonist mode assay are reported as IC50 values.
as §1

The target of experiment [12] is Dopamine D3 (Homo sapiens, UniProt P35462). Briefly: PDSP binding screen.
Sequence of Dopamine D3 (P35462 whole entry): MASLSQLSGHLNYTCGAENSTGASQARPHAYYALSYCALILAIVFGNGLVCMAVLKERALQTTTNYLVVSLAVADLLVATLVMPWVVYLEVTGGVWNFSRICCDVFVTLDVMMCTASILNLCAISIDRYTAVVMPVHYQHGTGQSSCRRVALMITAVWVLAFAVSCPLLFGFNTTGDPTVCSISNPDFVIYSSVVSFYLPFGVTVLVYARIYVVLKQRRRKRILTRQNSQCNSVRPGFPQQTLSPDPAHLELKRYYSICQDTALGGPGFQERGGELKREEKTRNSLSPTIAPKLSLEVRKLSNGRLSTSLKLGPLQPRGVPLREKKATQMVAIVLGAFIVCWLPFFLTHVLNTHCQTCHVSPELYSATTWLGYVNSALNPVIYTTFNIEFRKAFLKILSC
The target in experiment [13] is Benzodiazepine receptor (PBR) (Rattus norvegicus, UniProt P16257). Briefly: PDSP binding screen. To be noted: for Ki (nM) or % inhibition at 10 µM: Benzodiazepine receptor (PBR): PDSP, HCl salts.
Experiment [14] concerns the target T4, Serotonin 5-HT3 (Homo sapiens, UniProt P46098).
T4 sequence (P46098 24-478): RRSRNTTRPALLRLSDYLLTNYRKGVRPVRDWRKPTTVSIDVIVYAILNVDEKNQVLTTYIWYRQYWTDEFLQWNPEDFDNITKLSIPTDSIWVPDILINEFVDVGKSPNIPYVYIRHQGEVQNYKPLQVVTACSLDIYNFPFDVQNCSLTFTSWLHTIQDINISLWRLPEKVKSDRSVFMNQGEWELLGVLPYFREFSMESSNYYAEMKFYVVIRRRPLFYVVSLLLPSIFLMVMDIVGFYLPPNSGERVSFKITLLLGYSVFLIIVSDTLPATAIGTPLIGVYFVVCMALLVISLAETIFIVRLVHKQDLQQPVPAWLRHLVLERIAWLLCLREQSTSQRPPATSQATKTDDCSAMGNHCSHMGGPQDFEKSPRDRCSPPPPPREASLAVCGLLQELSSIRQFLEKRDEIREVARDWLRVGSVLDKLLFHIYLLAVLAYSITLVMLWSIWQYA
Briefly: PDSP binding screen.

Sequence of Opioid KOR (P41145 whole entry): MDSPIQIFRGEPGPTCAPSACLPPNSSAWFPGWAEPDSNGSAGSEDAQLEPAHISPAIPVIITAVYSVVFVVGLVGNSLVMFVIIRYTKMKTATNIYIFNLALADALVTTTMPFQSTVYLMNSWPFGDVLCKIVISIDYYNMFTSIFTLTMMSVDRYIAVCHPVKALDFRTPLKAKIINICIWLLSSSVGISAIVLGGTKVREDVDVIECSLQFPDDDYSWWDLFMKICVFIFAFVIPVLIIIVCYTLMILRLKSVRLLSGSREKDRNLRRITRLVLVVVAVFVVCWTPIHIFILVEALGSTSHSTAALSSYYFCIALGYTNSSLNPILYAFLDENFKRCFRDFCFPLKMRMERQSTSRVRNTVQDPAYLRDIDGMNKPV
Sequence of Adrenergic beta2 (P07550 whole entry): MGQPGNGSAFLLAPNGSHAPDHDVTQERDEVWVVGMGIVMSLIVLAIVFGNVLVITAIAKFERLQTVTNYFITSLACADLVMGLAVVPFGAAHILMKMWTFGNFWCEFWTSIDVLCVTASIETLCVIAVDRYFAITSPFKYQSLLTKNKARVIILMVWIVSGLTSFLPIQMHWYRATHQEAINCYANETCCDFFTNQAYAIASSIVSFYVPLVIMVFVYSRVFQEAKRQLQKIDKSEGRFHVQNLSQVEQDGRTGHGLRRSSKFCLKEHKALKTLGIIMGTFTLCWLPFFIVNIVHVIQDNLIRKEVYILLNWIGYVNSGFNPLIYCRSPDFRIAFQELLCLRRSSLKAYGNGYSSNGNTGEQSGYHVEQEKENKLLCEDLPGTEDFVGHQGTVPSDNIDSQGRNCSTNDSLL
Sequence of Muscarinic M3 (P20309 whole entry): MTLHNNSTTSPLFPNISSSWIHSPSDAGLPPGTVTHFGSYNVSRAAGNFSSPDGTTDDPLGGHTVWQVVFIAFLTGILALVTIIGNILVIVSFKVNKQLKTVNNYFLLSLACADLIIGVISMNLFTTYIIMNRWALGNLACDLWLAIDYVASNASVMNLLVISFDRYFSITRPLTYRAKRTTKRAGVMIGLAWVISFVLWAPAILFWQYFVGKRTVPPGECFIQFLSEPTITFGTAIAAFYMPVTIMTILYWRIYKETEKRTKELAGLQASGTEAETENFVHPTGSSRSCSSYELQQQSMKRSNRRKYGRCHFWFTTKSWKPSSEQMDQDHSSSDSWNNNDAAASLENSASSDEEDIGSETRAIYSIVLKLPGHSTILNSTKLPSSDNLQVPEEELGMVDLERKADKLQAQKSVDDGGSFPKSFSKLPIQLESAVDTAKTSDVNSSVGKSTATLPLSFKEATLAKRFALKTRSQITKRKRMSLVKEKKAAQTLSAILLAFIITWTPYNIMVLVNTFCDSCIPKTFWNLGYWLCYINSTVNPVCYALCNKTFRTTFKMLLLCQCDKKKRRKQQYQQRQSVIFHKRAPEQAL
Sequence of human D3 receptors (P35462 whole entry): as the sequence (P35462 whole entry) above

On to `CCN(CCCNC(=O)c1ccc(-c2ccsc2)cc1)CCNC(=O)c1cc(Br)cc(OC)c1OC` [21g, 5-Bromo-N-(2-(ethyl(3-(4-(thiophen-3-yl)benzamido)propyl)amino)ethyl)-2,3-dimethoxybenzamide], for which the inhibition constant Ki – broadly, the dissociation constant of the complex between target and ligand, obtained from inhibition or displacement – in [1] amounted to 0.616 µM; in experiment [2], 0.17 µM; in experiment [3], 4.81 µM; in experiment [4], 0.189 µM; in [5], 8.69 µM; in experiment [7] it was 312 ± 18 nM. The Ki in experiment [9] amounted to 1.94 µM; in experiment [10], 1.16 µM; in experiment [11] it was 2.5 ± 0.3 nM; in experiment [12] it was 0.00061 µM; in experiment [13] it was 0.006 µM; in [14] it was 0.195 µM. For the same compound, the inhibition at 10 µM in experiment [6] and in experiment [8] was below 50% in each case. In experiment [11], the D2/D3 was found to be 125. The “Ki (nM) or % inhibition at 10 µM: Benzodiazepine receptor (PBR)” value in experiment [13] is “relatively high affinity”.
As for `CCN(CCCNC(=O)c1ccsc1)CCNC(=O)c1cc(Br)cc(OC)c1OC` [21i, N-(3-((2-(5-Bromo-2,3-dimethoxybenzamido)ethyl)(ethyl)amino)propyl)thiophen-e-3-carboxamide], the inhibition at 10 µM in [1] (read-out: Ki (nM) or % inhibition at 10 µM: beta2), in experiment [2], in [3], in experiment [5], in experiment [6] and in experiment [8] was below 50% throughout. Further, the inhibition (usually the change of the read-out against control, counted positive when it falls) at 10 µM in experiment [13] (read-out: Ki (nM) or % inhibition at 10 µM: Benzodiazepine receptor (PBR)) is below 50%. Moreover, the inhibitory constant (Ki) in [4] turned out to be 0.269 µM; in experiment [7] it was 304 ± 7 nM; in experiment [9], 3.2 µM; in [10] it was 3.34 µM; in experiment [11], 7 ± 0.5 nM; in [12], 0.00028 µM. Besides, affinity in [14] was put at a Ki of 0.029 µM. In addition, the D2/D3 in [11] is 43.4. In addition, the “Ki (nM) or % inhibition at 10 µM: Benzodiazepine receptor (PBR)” value in [13] is reported as “relatively high affinity”.
As for `CCN(CCCNC(=O)c1cc2ccccc2n1C)CCNC(=O)c1cc(Br)cc(OC)c1OC` [21j, N-(3-((2-(5-Bromo-2,3-dimethoxybenzamido)ethyl)(ethyl)amino)propyl)-1-methyl-1H-indole-2-carboxamide], the Ki was above 10 µM in experiment [1]; 0.183 µM in experiment [4]; 192 ± 22 nM in experiment [7]; 2.97 µM in experiment [8]; 1.1 µM in experiment [9]; 3.11 µM in experiment [10]. The inhibition constant (Ki) in experiment [11] came out at 3.1 ± 0.5 nM; in [12], 0.00034 µM; in experiment [13], 0.008 µM; in experiment [14], 0.246 µM. In addition, the inhibition at 10 µM in experiment [2], in experiment [3], in experiment [5] and in experiment [6] was below 50% in each case. In addition, the D2/D3 in experiment [11] was 61.9.
